The values that follow come from patent US20240245791A1, “METHODS AND COMPOSITIONS FOR LOCALIZATION OF GROWTH FACTORS” (Arizona Board of Regents on Behalf of the University of …, priority 2021, published 2024).

For assay [1], the system named is collagen IV. The conditions noted are these: vs scrambled peptide control biotin-CBPi-QK; measured using Alexafluor 488 streptavidin.
For a further assay, the system named is collagen IV sites. The conditions noted are these: unconjugated VEGF; limited to the number of collagen IV sites available; cited from earlier work.
Assay [2] has as its system collagen IV. The experiment in a line: binding assay to collagen IV of CBP-VEGF vs CBPi-VEGF, ELISA for VEGF121. The conditions noted are these: vs scrambled peptide control CBPi-VEGF; measured using an ELISA for VEGF121. On the procedure:
The result is measured using an ELISA for VEGF121.

Like-named read-outs stand apart in the source and are kept apart here.

As to “biotin-CQDSETRT-KLTWQELYQLKYKGI-COOH (SEQ ID NO: 16) [biotin-CBP-QK]”, the “binding to collagen IV” value in the assay on collagen IV [1] was “significantly greater than the scrambled control at all concentrations”. As to VEGF, in the assay with collagen IV sites, the “share of VEGF added to a scaffold that will bind” value is 5%.

B1: CBP-VEGF: VEGF121 protein conjugated by click chemistry to collagen binding protein CBP (CQDSETRTFY, SEQ ID NO: 1) (conjugate)
chain: APMAEGGGQNHHEVVKFMDVYQRSYCHPIETLVDIFQEYPDEIEYIFKPSCVPLMRCGGCCNDEGLECVPTEESNITMQIMRIKPHQGQHIGEMSFLQHNKCECRPKKDRARQEKCDKPRR
peptide: CQDSETRTFY
As for B1, the “binding to collagen IV” value in the assay on collagen IV [2] is listed as “significantly greater than the scrambled control at all concentrations”.
